# Laboratory results from patent publication US20220402882A1, “HERBICIDAL COMPOUNDS” (SYNGENTA CROP PROTECTION AG, priority 2019, published 2022).
# Assays:
# Assay type in all cases: in vivo
# Settings in all cases: evaluated after 13 days
# [1] = tested on: Abutilon theophrasti (ABUTH); test: Pre-emergence glasshouse herbicide test
# Description: (§1) Seeds of a variety of test species are sown in standard soil in pots (Lolium perenne (LOLPE), Amaranthus retoflexus (AMARE), Abutilon theophrasti (ABUTH), Setaria faberi (SETFA), Echinochloa crus-galli (ECHCG), Ipomoea hederacea (IPOHE)). After cultivation for one day (pre-emergence) or after 8 days cultivation (post-emergence) under controlled conditions in a glasshouse (at 24/16° C., day/night; 14 hours light; 65% humidity), the plants are sprayed with an aqueous spray solution derived from the formulation of the technical active ingredient in acetone/water (50:50) solution containing 0.5% Tween™ 20 (polyoxyethelyene sorbitan monolaurate, CAS RN 9005-64-5). Compounds are applied at 125 g/h unless otherwise indicated. The test plants are then grown in a glasshouse under controlled conditions in a glasshouse (at 24/16° C., day/night; 14 hours light; 65% humidity) and watered twice daily. After 13 days for pre- and post-emergence, the test is evaluated for the percentage damage caused to the plant. The biological activities are shown in the following table on a five-point scale (5=80-100%; 4=60-79%; 3=40-59%; 2=20-39%; 1=0-19%).
# [2] = tested on: Amaranthus retoflexus (AMARE); test: Pre-emergence glasshouse herbicide test
# Description: as §1
# [3] = tested on: Echinochloa crus-galli (ECHCG); test: Pre-emergence glasshouse herbicide test
# Description: as §1
# [4] = tested on: Ipomoea hederacea (IPOHE); test: Pre-emergence glasshouse herbicide test
# Description: as §1
# [5] = tested on: Setaria faberi (SETFA); test: Pre-emergence glasshouse herbicide test
# Description: as §1
# [6] = tested on: Abutilon theophrasti (ABUTH); test: Post-emergence glasshouse herbicide test
# Description: as §1
# [7] = tested on: Amaranthus retoflexus (AMARE); test: Post-emergence glasshouse herbicide test
# Description: as §1
# [8] = tested on: Echinochloa crus-galli (ECHCG); test: Post-emergence glasshouse herbicide test
# Description: as §1
# [9] = tested on: Ipomoea hederacea (IPOHE); test: Post-emergence glasshouse herbicide test
# Description: as §1
# [10] = tested on: Setaria faberi (SETFA); test: Post-emergence glasshouse herbicide test
# Description: as §1
SMILES,"percentage damage caused to the plant, ABUTH ([1]; 125 g/h)","percentage damage caused to the plant, AMARE ([2]; 125 g/h)","percentage damage caused to the plant, ECHCG ([3]; 125 g/h)","percentage damage caused to the plant, IPOHE ([4]; 125 g/h)","percentage damage caused to the plant, SETFA ([5]; 125 g/h)","percentage damage caused to the plant, ABUTH ([6]; 125 g/h)","percentage damage caused to the plant, AMARE ([7]; 125 g/h)","percentage damage caused to the plant, ECHCG ([8]; 125 g/h)","percentage damage caused to the plant, IPOHE ([9]; 125 g/h)","percentage damage caused to the plant, SETFA ([10]; 125 g/h)","percentage damage caused to the plant, ABUTH ([1]; *Applied at 250 g/ha)","percentage damage caused to the plant, AMARE ([2]; *Applied at 250 g/ha)","percentage damage caused to the plant, ECHCG ([3]; *Applied at 250 g/ha)","percentage damage caused to the plant, IPOHE ([4]; *Applied at 250 g/ha)","percentage damage caused to the plant, SETFA ([5]; *Applied at 250 g/ha)","percentage damage caused to the plant, ABUTH ([6]; *Applied at 250 g/ha)","percentage damage caused to the plant, AMARE ([7]; *Applied at 250 g/ha)","percentage damage caused to the plant, ECHCG ([8]; *Applied at 250 g/ha)","percentage damage caused to the plant, IPOHE ([9]; *Applied at 250 g/ha)","percentage damage caused to the plant, SETFA ([10]; *Applied at 250 g/ha)"
CC[S+]([O-])c1c(OC(F)(F)F)ccc(C(=O)Nc2nnnn2C)c1C (stereo not drawn) [Compound 1.023],5 (5=80-100%),5 (5=80-100%),5 (5=80-100%),5 (5=80-100%),5 (5=80-100%),5 (5=80-100%),5 (5=80-100%),5 (5=80-100%),5 (5=80-100%),5 (5=80-100%),,,,,,,,,,
CCS(=O)(=O)c1c(CC(F)(F)F)ccc(C(=O)Nc2nnnn2C)c1Cl [Compound 1.022],5 (5=80-100%),5 (5=80-100%),5 (5=80-100%),5 (5=80-100%),5 (5=80-100%),5 (5=80-100%),4 (4=60-79%),5 (5=80-100%),5 (5=80-100%),5 (5=80-100%),,,,,,,,,,
Cc1c(C(=O)Nc2nnnn2C)ccc(OC(F)(F)F)c1S(C)(=O)=O [Compound 1.013],5 (5=80-100%),5 (5=80-100%),5 (5=80-100%),5 (5=80-100%),5 (5=80-100%),5 (5=80-100%),5 (5=80-100%),5 (5=80-100%),5 (5=80-100%),5 (5=80-100%),,,,,,,,,,
CC[S+]([O-])c1c(CC(F)(F)F)ccc(C(=O)Nc2nnnn2C)c1Cl (stereo not drawn) [Compound 1.020],5 (5=80-100%),5 (5=80-100%),5 (5=80-100%),5 (5=80-100%),5 (5=80-100%),5 (5=80-100%),5 (5=80-100%),5 (5=80-100%),5 (5=80-100%),5 (5=80-100%),,,,,,,,,,
CCS(=O)(=O)c1c(OCC(F)(F)F)ccc(C(=O)Nc2nnc(C)o2)c1C [Compound 2.018],5 (5=80-100%),5 (5=80-100%),5 (5=80-100%),4 (4=60-79%),5 (5=80-100%),5 (5=80-100%),5 (5=80-100%),5 (5=80-100%),5 (5=80-100%),5 (5=80-100%),,,,,,,,,,
CCn1nnnc1NC(=O)c1ccc(OC(F)F)c(S(=O)(=O)CC)c1C [Compound 1.048],5 (5=80-100%),5 (5=80-100%),5 (5=80-100%),5 (5=80-100%),5 (5=80-100%),5 (5=80-100%),5 (5=80-100%),5 (5=80-100%),5 (5=80-100%),5 (5=80-100%),,,,,,,,,,
CCn1nnnc1NC(=O)c1ccc(OC(F)F)c(S(=O)(=O)CC)c1Cl [Compound 1.049],5 (5=80-100%),5 (5=80-100%),5 (5=80-100%),5 (5=80-100%),5 (5=80-100%),5 (5=80-100%),5 (5=80-100%),5 (5=80-100%),4 (4=60-79%),5 (5=80-100%),,,,,,,,,,
CC[S+]([O-])c1c(OC(F)F)ccc(C(=O)Nc2nnnn2C)c1Cl (stereo not drawn) [Compound 1.026],5 (5=80-100%),5 (5=80-100%),5 (5=80-100%),5 (5=80-100%),5 (5=80-100%),5 (5=80-100%),5 (5=80-100%),5 (5=80-100%),5 (5=80-100%),5 (5=80-100%),,,,,,,,,,
CCn1nnnc1NC(=O)c1ccc(OC(F)F)c(S(=O)(=O)CC(C)C)c1Cl [Compound 1.053],5 (5=80-100%),5 (5=80-100%),5 (5=80-100%),4 (4=60-79%),5 (5=80-100%),5 (5=80-100%),5 (5=80-100%),5 (5=80-100%),5 (5=80-100%),5 (5=80-100%),,,,,,,,,,
CC(C)CS(=O)(=O)c1c(OC(F)F)ccc(C(=O)Nc2nnnn2C)c1Cl [Compound 1.052],5 (5=80-100%),5 (5=80-100%),5 (5=80-100%),5 (5=80-100%),5 (5=80-100%),5 (5=80-100%),4 (4=60-79%),4 (4=60-79%),5 (5=80-100%),4 (4=60-79%),,,,,,,,,,
CCSc1c(OC(F)F)ccc(C(=O)Nc2nnnn2C)c1Cl [Compound 1.027],5 (5=80-100%),5 (5=80-100%),5 (5=80-100%),3 (3=40-59%),5 (5=80-100%),5 (5=80-100%),5 (5=80-100%),5 (5=80-100%),4 (4=60-79%),5 (5=80-100%),,,,,,,,,,
CSc1c(OC(F)(F)F)ccc(C(=O)Nc2nnc(C)o2)c1Cl [Compound 2.006],,,,,,,,,,,2 (2=20-39%),5 (5=80-100%),1 (1=0-19%),1 (1=0-19%),1 (1=0-19%),5 (5=80-100%),5 (5=80-100%),5 (5=80-100%),5 (5=80-100%),5 (5=80-100%)
